Patent US20100331348A1, “TROPANE DERIVATIVES USEFUL AS PESTICIDES” (SYNGENTA CROP PROTECTION, INC., priority 2007, published 2010)
Like-named read-outs stand apart in the source and are kept apart here.

Tests used:
Assay type in all cases: in vivo
Pyricularia oryzae = experiment: whole plant or invertebrate; settings: foliar, 96 h
[1] = system: Erysiphe graminis f.sp. tritici; experiment: Erysiphe graminis f.sp. tritici (wheat powdery mildew) leaf disk assay; settings: Blumeria graminis, foliar, 96 h, preventive, four days after inoculation, read-out: control of fungal infection, Erysiphe graminis fsp. tritici
[2] = system: Puccinia recondita f.sp. tritici; experiment: Puccinia recondita f.sp. tritici (wheat brown rust) leaf disk assay; settings: foliar, 216 h, preventive, nine days after inoculation, read-out: control of fungal infection, Puccinia recondita f.sp. tritici
[3] = read-out: control of fungal infection, Pyricularia oryzae (at least 60% list)
[4] = read-out: control of fungal infection, Pyricularia oryzae (at least 80% list)

Row | Structure (SMILES) | pest or weed control at 200 ppm (Pyricularia oryzae; [3]) [%] | pest or weed control at 200 ppm [1] [%] | pest or weed control at 200 ppm [2] [%] | pest or weed control at 200 ppm (Pyricularia oryzae; [4]) [%]
1 | FC(F)(F)c1cccc(OC2C[C@H]3CC[C@@H](C2)N3c2ncnc3sccc23)n1 (some centres unmarked) [Example 2.60] | ≥ 60 | ≥ 80 | ≥ 80 | 
2 | CCCCOCON=C1CC2CCC(C1)N2c1ncnc2sccc12 [Example 5.178] | ≥ 60 | ≥ 80 | ≥ 80 | 
3 | FC(F)(F)Oc1cccc(CON=C2CC3CCC(C2)N3c2ncnc3sccc23)c1 [Example 5.212] | ≥ 60 | ≥ 80 | ≥ 80 | 
4 | Cn1cc(C(=O)N2[C@@H]3CC[C@H]2CC(Oc2cc(C(F)(F)F)ccn2)C3)c(C(F)(F)F)c1 (some centres unmarked) [Example 2.219] | ≥ 60 |  |  | 
5 | CCCCNC1C[C@H]2CC[C@@H](C1)N2c1ncnc2sccc12 (some centres unmarked) [Example 4.9] |  |  |  | ≥ 80
6 | CCCNC(=O)C=C1CC2CCC(C1)N2c1ncnc2sccc12 [Example 3.31] |  |  | ≥ 80 | ≥ 80
7 | FC(F)(F)c1ccnc(OC2C[C@H]3CC[C@@H](C2)N3c2ncnc3ccccc23)c1 (some centres unmarked) [Example 2.84] | ≥ 60 | ≥ 80 | ≥ 80 | 
8 | CCc1ncnc(N2C3CCC2CC(=NOCc2ccccc2-c2ccccc2)C3)c1Cl [Example 5.35] |  | ≥ 80 | ≥ 80 | 
9 | CCc1ncnc(N2C3CCC2CC(=NOCc2cccc(CCl)c2)C3)c1Cl [Example 5.45] |  | ≥ 80 | ≥ 80 | 
10 | CCc1ncnc(N2C3CCC2CC(=NOCc2noc(-c4ccc(C(F)(F)F)cc4)n2)C3)c1Cl [Example 5.126] |  | ≥ 80 | ≥ 80 | 
11 | CCc1ncnc(N2C3CCC2CC(=NOCc2cccc(Oc4ccccc4)c2)C3)c1Cl [Example 5.18] |  | ≥ 80 | ≥ 80 | 
12 | Ic1ccccc1CON=C1CC2CCC(C1)N2c1ncnc2sccc12 [Example 5.201] |  | ≥ 80 | ≥ 80 | 
13 | Clc1cc(Br)ccc1OC1C[C@H]2CC[C@@H](C1)N2c1ncnc2sccc12 (some centres unmarked) [Example 1.28] | ≥ 60 |  |  | 
14 | COc1cc(CON=C2CC3CCC(C2)N3c2ncnc3sccc23)nc(N)n1 [Example 5.172] |  | ≥ 80 | ≥ 80 | 
15 | Cc1nn(C)c2nccc(N3C4CCC3CC(=NOCc3ccc(Cl)cc3)C4)c12 [Example 5.256] | ≥ 60 | ≥ 80 | ≥ 80 | 
16 | CCc1ncnc(N2C3CCC2CC(=NOCc2ccc(F)c(F)c2)C3)c1Cl [Example 5.56] |  | ≥ 80 | ≥ 80 | 
17 | FC(F)(F)c1cccc(OC2C[C@H]3CC[C@@H](C2)N3c2ccncn2)n1 (some centres unmarked) [Example 2.86] |  | ≥ 80 | ≥ 80 | 
18 | Cc1ccc(C)c(CON=C2CC3CCC(C2)N3c2ncnc3sccc23)c1 [Example 5.203] | ≥ 60 | ≥ 80 | ≥ 80 | 
19 | CCc1ncnc(N2C3CCC2CC(=NOCc2ccc4ccccc4n2)C3)c1Cl [Example 5.89] |  | ≥ 80 | ≥ 80 | 
20 | CCc1ncnc(N2C3CCC2CC(=NOCc2ccc(-c4ccccc4C#N)cc2)C3)c1Cl [Example 5.58] |  | ≥ 80 | ≥ 80 | 

Row | Structure (SMILES) | pest or weed control at 200 ppm (Pyricularia oryzae; [3]) [%] | pest or weed control at 200 ppm [1] [%] | pest or weed control at 200 ppm [2] [%] | pest or weed control at 200 ppm (Pyricularia oryzae; [4]) [%]
21 | FC(F)(F)c1ccnc(OC2C[C@H]3CC[C@@H](C2)N3c2ccnc3c(Cl)cccc23)c1 (some centres unmarked) [Example 2.195] | ≥ 60 |  |  | 
22 | CCc1ncnc(N2C3CCC2CC(=NOCc2c(F)c(F)c(F)c(F)c2F)C3)c1Cl [Example 5.84] |  | ≥ 80 | ≥ 80 | 
23 | O=C(c1ccccc1)c1ccc(OC2C[C@H]3CC[C@@H](C2)N3c2ncnc3sccc23)cc1 (some centres unmarked) [Example 2.39] | ≥ 60 |  |  | 
24 | Fc1ccc(OC2C[C@H]3CC[C@@H](C2)N3c2ncnc3sccc23)cc1F (some centres unmarked) [Example 2.18] | ≥ 60 |  |  | 
25 | CCc1ncnc(N2C3CCC2CC(CC(=O)Nc2ccc(Cl)cc2)C3)c1Cl (centres unmarked) [Example 7.22] | ≥ 60 |  | ≥ 80 | ≥ 80
26 | Fc1cc(CON=C2CC3CCC(C2)N3c2ncnc3sccc23)cc(F)c1F [Example 5.208] |  | ≥ 80 | ≥ 80 | 
27 | c1ccc(Oc2cccc(CON=C3CC4CCC(C3)N4c3ncnc4sccc34)c2)cc1 [Example 5.173] | ≥ 60 | ≥ 80 | ≥ 80 | ≥ 80
28 | c1ccc(CNC2C[C@H]3CC[C@@H](C2)N3c2ncnc3sccc23)cc1 (some centres unmarked) [Example 4.10] |  |  |  | ≥ 80
29 | Cc1nn(C)c2nccc(N3[C@@H]4CC[C@H]3CC(Oc3ccc(Cl)cc3)C4)c12 (some centres unmarked) [Example 1.138] | ≥ 60 |  |  | 
30 | Cc1nn(C)c2nccc(N3[C@@H]4CC[C@H]3CC(Oc3ccc(Oc5ccc(C(F)(F)F)cn5)cc3)C4)c12 (some centres unmarked) [Example 2.160] | ≥ 60 |  |  | 
31 | CCn1nnc(-c2ccc(CON=C3CC4CCC(C3)N4c3ncnc4sccc34)cc2)n1 [Example 5.247] |  | ≥ 80 | ≥ 80 | 
32 | CCc1ncnc(N2C3CCC2CC(=NOCc2cccc(Cl)c2Cl)C3)c1Cl [Example 5.59] |  | ≥ 80 | ≥ 80 | 
33 | CCc1ncnc(N2C3CCC2CC(=NOCC2COc4ccccc4O2)C3)c1Cl (centres unmarked) [Example 5.93] |  | ≥ 80 | ≥ 80 | 
34 | CC(C)(C)c1csc(CC2CC3CCC(C2)N3c2ncnc3sccc23)n1 (centres unmarked) [Example 7.17] | ≥ 60 |  |  | ≥ 80
35 | OC1(Cc2ccccc2)CC2CCC(C1)N2c1ncnc2sccc12 (centres unmarked) [Example 7.14] |  |  |  | ≥ 80
36 | CCc1ncnc(N2C3CCC2CC(=CC(=O)Nc2ccc(Cl)cc2)C3)c1Cl [Example 3.11] | ≥ 60 |  | ≥ 80 | 
37 | Cc1cc(C)cc(CON=C2CC3CCC(C2)N3c2ncnc3sccc23)c1 [Example 5.156] | ≥ 60 | ≥ 80 | ≥ 80 | 
38 | CCc1ncnc(N2C3CCC2CC(=NOCc2cc(F)c(F)c(F)c2)C3)c1Cl [Example 5.67] |  | ≥ 80 | ≥ 80 | 
39 | Fc1cc2c(c(CON=C3CC4CCC(C3)N4c3ncnc4sccc34)c1)OCOC2 [Example 5.257] |  | ≥ 80 | ≥ 80 | 
40 | Cc1nc(ON=C2CC3CCC(C2)N3c2ncnc3sccc23)cc(-c2ccccc2)n1 [Example 5.236] | ≥ 60 |  |  | 

Row | Structure (SMILES) | pest or weed control at 200 ppm (Pyricularia oryzae; [3]) [%] | pest or weed control at 200 ppm [1] [%] | pest or weed control at 200 ppm [2] [%] | pest or weed control at 200 ppm (Pyricularia oryzae; [4]) [%]
41 | Cc1csc2c(N3[C@@H]4CC[C@H]3CC(Oc3ccc(C(F)(F)F)cn3)C4)ncnc12 (some centres unmarked) [Example 2.81] | ≥ 60 |  |  | 
42 | CCc1ncnc(N2C3CCC2CC(=NOCc2cccc(OC(F)F)c2)C3)c1Cl [Example 5.65] |  | ≥ 80 | ≥ 80 | 
43 | CCc1ncnc(C(C)c2ncnc(N3C4CCC3CC(=NOc3ncc(C(F)(F)F)cc3Cl)C4)c2Cl)c1Cl (centres unmarked) [Example 5.124] | ≥ 60 |  |  | 
44 | CCc1ncnc(N2C3CCC2CC(=NOCc2cc(F)cc4c2OCOC4)C3)c1Cl [Example 5.121] |  | ≥ 80 | ≥ 80 | 
45 | COc1cc(OCC=C2CC3CCC(C2)N3c2ncnc3sccc23)ccc1Cl [Example 3.24] |  |  | ≥ 80 | ≥ 80
46 | Cn1cc(C(=O)N2[C@@H]3CC[C@H]2CC(Oc2cccc(C(F)(F)F)n2)C3)c(C(F)(F)F)c1 (some centres unmarked) [Example 2.221] | ≥ 60 |  |  | 
47 | FC(F)(F)C(F)(F)c1csc(CC2CC3CCC(C2)N3c2ncnc3sccc23)n1 (centres unmarked) [Example 7.20] | ≥ 60 |  | ≥ 80 | 
48 | FC(F)(F)Sc1ccc(CON=C2CC3CCC(C2)N3c2ncnc3sccc23)cc1 [Example 5.230] |  | ≥ 80 | ≥ 80 | 
49 | Fc1ccc(F)c(OC2C[C@H]3CC[C@@H](C2)N3c2ncnc3sccc23)c1 (some centres unmarked) [Example 2.25] | ≥ 60 | ≥ 80 |  | 
50 | c1ccc(-c2ccc(CON=C3CC4CCC(C3)N4c3ncnc4sccc34)cc2)cc1 [Example 5.175] |  | ≥ 80 | ≥ 80 | 
51 | Fc1cc(Cl)cnc1ON=C1CC2CCC(C1)N2c1ncnc2sccc12 [Example 5.182] |  | ≥ 80 | ≥ 80 | 
52 | Fc1ccc(OC2C[C@H]3CC[C@@H](C2)N3c2ncnc3sccc23)cc1F (some centres unmarked) [Example 1.18] |  | ≥ 80 | ≥ 80 | 
53 | O=c1oc2cc(OC3C[C@H]4CC[C@@H](C3)N4c3ncnc4sccc34)ccc2s1 (some centres unmarked) [Example 2.69] | ≥ 60 |  |  | 
54 | CCc1ncnc(N2C3CCC2CC(=NOCc2cccc(Cl)c2)C3)c1Cl [Example 5.37] |  | ≥ 80 | ≥ 80 | 
55 | CCc1ncnc(N2C3CCC2CC(=NOCc2ccc(OCc4ccccc4)cc2)C3)c1Cl [Example 5.64] |  | ≥ 80 | ≥ 80 | 
56 | CCc1ncnc(N2[C@@H]3CC[C@H]2CC(Oc2ccc4sc(=O)oc4c2)C3)c1Cl (some centres unmarked) [Example 2.177] | ≥ 60 |  |  | 
57 | Fc1ccc(OC2C[C@H]3CC[C@@H](C2)N3c2ncnc3sccc23)cc1C(F)(F)F (some centres unmarked) [Example 2.52] | ≥ 60 |  |  | 
58 | CSc1nccc(N2[C@@H]3CC[C@H]2CC(Oc2cccc(C(F)(F)F)n2)C3)n1 (some centres unmarked) [Example 2.98] | ≥ 60 |  |  | 
59 | CCc1ncnc(N2C3CCC2CC(=NOCc2cccc(Br)c2)C3)c1Cl [Example 5.39] |  | ≥ 80 | ≥ 80 | 
